Our source for the ED50 and ED values is ChEMBL document CHEMBL3244099, “Various 5-substituted and 2,5-disubstituted 1,3-dioxanes, a new class of analgesic agents” (1977).

Type in all cases: functional
The species named for one assay is Mus musculus. The assay can be described thus: animal or person.
The test system of assay [1] is Rattus norvegicus. The assay can be described thus: Analgesic activity in sc dosed rat assessed as dose required for 2 times increase in reaction time after 30 mins by tail jerk test relative to control.
Assay [2] concerns Rattus norvegicus. As to the kind of experiment: Analgesic activity in sc dosed rat assessed as dose required for 2 times increase in reaction time after 15 mins by tail jerk test relative to control.
Setting [3] is: Mus musculus, sc, read-out: ED50.

Description for Mus musculus: Analgesic activity in sc dosed mouse assessed as inhibition of acetic acid-induced writhing after 15 to 30 mins

For the molecule `CN1CC[C@]23c4c5ccc(O)c4O[C@H]2[C@@H](O)C=C[C@H]3[C@H]1C5.CN1CC[C@]23c4c5ccc(O)c4O[C@H]2[C@@H](O)C=C[C@H]3[C@H]1C5.O=S(=O)(O)O`, the ED50 in the assay listed under Mus musculus (setting [3]) worked out at 0.97 mg/kg.

For the molecule `COc1ccc2c3c1O[C@H]1[C@@H](O)C=C[C@H]4[C@@H](C2)N(C)CC[C@@]341.O=S(=O)(O)O`, in the assay listed under Mus musculus (setting [3]), the ED50 was 6.7 mg/kg. Further, in the assay with Rattus norvegicus [1], the ED turned out to be 4.2 mg/kg.

Regarding `COc1cccc(C(C2COCOC2)N(C)C)c1.O=C(O)/C=C\C(=O)O` (stereo not given), in the assay listed under Mus musculus (setting [3]), the ED50 is over 50 mg/kg.

Take `CN(C)C(c1cccc(Cl)c1)C1COCOC1.O=C(O)/C=C\C(=O)O` (stereo not given): the ED50 in the assay filed under Mus musculus (setting [3]) is over 50 mg/kg.

Regarding `CN(C)C(c1ccc(Cl)cc1)C1COCOC1.Cl` (stereo not given), the 50% effective dose (ED50) in the assay listed under Mus musculus (setting [3]) is 32 mg/kg.

With `CN(C)C(c1ccc(Cl)cc1Cl)C1COCOC1.Cl` (stereo not given), the ED50 in the assay filed under Mus musculus (setting [3]) was over 50 mg/kg.

`CN(C)C(c1ccc(F)cc1)C1COCOC1.Cl` (stereo not given): the ED50 in the assay listed under Mus musculus (setting [3]) is 30 mg/kg.

Take `COc1ccc(C(C2COCOC2)N(C)C)cc1.Cl` (stereo not given): the median effective dose (ED50) in the assay filed under Mus musculus (setting [3]) was over 50 mg/kg.

As to `Cc1ccccc1C(C1COCOC1)N(C)C.Cl` (stereo not given), in the assay listed under Mus musculus (setting [3]), the ED50 amounted to 39 mg/kg.

As for `Cc1cccc(C(C2COCOC2)N(C)C)c1.O=C(O)/C=C\C(=O)O` (stereo not given), the ED50 in the assay filed under Mus musculus (setting [3]) is over 50 mg/kg.

For `Cc1ccc(C(C2COCOC2)N(C)C)cc1.O=C(O)/C=C\C(=O)O` (stereo not given), in the assay with Rattus norvegicus [2], the ED was found to be 7.9 mg/kg. The median effective dose (ED50) in the assay listed under Mus musculus (setting [3]) was 20 mg/kg.

Turning to `CN(C)C(c1cccc(OCc2ccccc2)c1)C1COCOC1.Cl` (stereo not given), in the assay filed under Mus musculus (setting [3]), the ED50 was over 50 mg/kg.

Consider `CN(C)C(c1ccc(OCc2ccccc2)cc1)C1COCOC1.Cl` (stereo not given), for which the ED50 in the assay filed under Mus musculus (setting [3]) was over 50 mg/kg.

Consider `CN(C)C(c1ccccn1)C1COCOC1.O=C(O)/C=C\C(=O)O` (stereo not given), for which the ED50 in the assay filed under Mus musculus (setting [3]) is over 50 mg/kg.

In the case of `CN(C)C(c1ccncc1)C1COCOC1.O=C(O)/C=C\C(=O)O` (stereo not given), the ED50 in the assay filed under Mus musculus (setting [3]) is over 50 mg/kg.

Regarding `Cl.Clc1ccc(C(C2COCOC2)N2CCCCC2)cc1` (stereo not given), the ED50 in the assay listed under Mus musculus (setting [3]) was determined as 33 mg/kg.

As to `CCN(CC)C(c1ccccc1)C1COCOC1.[O-][Cl+3]([O-])([O-])O` (stereo not given), in the assay filed under Mus musculus (setting [3]), the 50% effective dose (ED50) was over 50 mg/kg.

In the case of `Cl.c1ccc(C(C2COCOC2)N2CCCC2)cc1` (stereo not given), the median effective dose (ED50) in the assay listed under Mus musculus (setting [3]) is over 50 mg/kg.

As to `Cl.c1ccc(C(C2COCOC2)N2CCOCC2)cc1` (stereo not given), the median effective dose (ED50) in the assay listed under Mus musculus (setting [3]) was over 50 mg/kg.

Regarding `CN(C)C(c1cccc(O)c1)C1COCOC1.Cl` (stereo not given), in the assay listed under Mus musculus (setting [3]), the median effective dose (ED50) was over 50 mg/kg.

`CN(C)C(c1ccc(O)cc1)C1COCOC1.Cl` (stereo not given): in the assay with Rattus norvegicus [2], the ED amounted to 12 mg/kg. In addition, the ED50 in the assay filed under Mus musculus (setting [3]) is 13 mg/kg.

For `CC(=O)Oc1ccc(C(C2COCOC2)N(C)C)cc1.Cl` (stereo not given), in the assay with Rattus norvegicus [2], the ED was 7.3 mg/kg. In the assay filed under Mus musculus (setting [3]), the ED50 is 11 mg/kg.

Consider `CNC(c1ccccc1)C1COCOC1.Cl` (stereo not given), for which the median effective dose (ED50) in the assay filed under Mus musculus (setting [3]) was 21 mg/kg.

As to `C=CCN(C)C(c1ccccc1)C1COCOC1.Cl` (stereo not given), in the assay filed under Mus musculus (setting [3]), the median effective dose (ED50) is over 50 mg/kg.

`Cl.NC(c1ccccc1)C1COCOC1` (stereo not given): the 50% effective dose (ED50) in the assay listed under Mus musculus (setting [3]) is over 50 mg/kg.

On to `CC1OCOCC1C(c1ccccc1)N(C)C.Cl` (stereo not given), for which, in the assay listed under Mus musculus (setting [3]), the ED50 was determined as 32 mg/kg.

As to `CN(C)C(c1ccccc1)C1(C)COCOC1.Cl` (stereo not given), the ED50 in the assay filed under Mus musculus (setting [3]) is over 50 mg/kg.

As for `CN(C)C(c1ccccc1Cl)C1COCOC1.Cl` (stereo not given), the ED50 in the assay filed under Mus musculus (setting [3]) worked out at 48 mg/kg.

`CN(C)C(c1cccnc1)C1COCOC1.Cl` (racemic): the ED in the assay with Rattus norvegicus [2] is 9.6 mg/kg. The same molecule came in with an ED50 in the assay listed under Mus musculus of 6.1 mg/kg.

In the case of `CC1OCC(C(c2ccccc2)N(C)C)CO1` (racemic), the ED in the assay with Rattus norvegicus [2] is 6.3 mg/kg. The 50% effective dose (ED50) in the assay listed under Mus musculus (setting [3]) was found to be 3.9 mg/kg.

With `CCC1OCC(C(c2ccccc2)N(C)C)CO1` (racemic), the ED50 in the assay listed under Mus musculus (setting [3]) was 19 mg/kg.

Turning to `CC(C)C1OCC(C(c2ccccc2)N(C)C)CO1.Cl` (racemic), the median effective dose (ED50) in the assay listed under Mus musculus (setting [3]) was over 50 mg/kg.

Consider `CN(C)C(c1ccccc1)C1COC(C2CCCCC2)OC1.Cl` (racemic), for which the ED50 in the assay listed under Mus musculus (setting [3]) was over 50 mg/kg.

Turning to `CN(C)C(c1ccccc1)C1COC(C2CCCC2)OC1` (racemic), the ED50 in the assay filed under Mus musculus (setting [3]) was found to be 45 mg/kg.

Consider `CCC1(c2ccccc2)OCC(C(c2ccccc2)N(C)C)CO1.O=C(O)/C=C\C(=O)O` (racemic), for which, in the assay filed under Mus musculus (setting [3]), the median effective dose (ED50) is over 50 mg/kg.

Consider `Cc1ccc(C(C2COC(C)OC2)N(C)C)cc1.Cl` (racemic), for which the ED in the assay with Rattus norvegicus [2] was found to be 7.9 mg/kg. Moreover, in the assay listed under Mus musculus (setting [3]), the 50% effective dose (ED50) is 2.9 mg/kg.

Turning to `CN(C)C(c1ccccc1)C1COCOC1.Cl` (racemic), the ED in the assay with Rattus norvegicus [2] turned out to be 4 mg/kg. In the assay filed under Mus musculus, this molecule showed a median effective dose (ED50) of 14 mg/kg.

Regarding `CN(C)C(c1ccccc1)C1COCOC1.Cl` (stereo in doubt; (+)-4a), the ED with Rattus norvegicus [2] worked out at 69 mg/kg. The same molecule showed an ED50 in the assay filed under Mus musculus of over 50 mg/kg.

With `CN(C)C(c1cccnc1)C1COCOC1.Cl` (stereo in doubt; (+)-4o), the ED in the assay with Rattus norvegicus [2] was over 80 mg/kg. Besides, in the assay listed under Mus musculus, the ED50 was over 50 mg/kg.

With `CN(C)C(c1ccccc1)C1COCOC1.Cl` (stereo in doubt; (-)-4a), in the assay on Rattus norvegicus [2], the ED is 2.4 mg/kg. The median effective dose (ED50) in the assay listed under Mus musculus is 6.2 mg/kg.

For the molecule `CN(C)C(c1cccnc1)C1COCOC1.Cl` (stereo in doubt; (-)-4o), the ED with Rattus norvegicus [2] came to 5.7 mg/kg. In the assay filed under Mus musculus, the median effective dose (ED50) amounted to 3.6 mg/kg.

Turning to `CCOC(=O)C1(c2ccccc2)CCN(C)CC1.Cl` [MEPERIDINE HYDROCHLORIDE], in the assay with Rattus norvegicus [2], the ED amounted to 1.9 mg/kg. Moreover, in the assay listed under Mus musculus (setting [3]), the ED50 came out at 2.9 mg/kg.
